Structures can show the parent of a compound that is named as a salt.
How the values were obtained:
[1] = target: T1, human, citrated, platelet-rich plasma (Homo sapiens, UniProt P05106+P08514); experiment: Test (a): inhibition of ADP stimulated platelet aggregation (Born); format: cell-based; conditions: ADP induced aggregation of human platelet-rich plasma; read-out: Test (a): pA2 value indicating potency of platelet aggregation inhibition (converted)
T1 construct: aggregating human, citrated, platelet-rich plasma; endogenous in cells; host or cells: human platelets in citrated platelet-rich plasma
T1 sequence (P08514 32-887 limits assumed): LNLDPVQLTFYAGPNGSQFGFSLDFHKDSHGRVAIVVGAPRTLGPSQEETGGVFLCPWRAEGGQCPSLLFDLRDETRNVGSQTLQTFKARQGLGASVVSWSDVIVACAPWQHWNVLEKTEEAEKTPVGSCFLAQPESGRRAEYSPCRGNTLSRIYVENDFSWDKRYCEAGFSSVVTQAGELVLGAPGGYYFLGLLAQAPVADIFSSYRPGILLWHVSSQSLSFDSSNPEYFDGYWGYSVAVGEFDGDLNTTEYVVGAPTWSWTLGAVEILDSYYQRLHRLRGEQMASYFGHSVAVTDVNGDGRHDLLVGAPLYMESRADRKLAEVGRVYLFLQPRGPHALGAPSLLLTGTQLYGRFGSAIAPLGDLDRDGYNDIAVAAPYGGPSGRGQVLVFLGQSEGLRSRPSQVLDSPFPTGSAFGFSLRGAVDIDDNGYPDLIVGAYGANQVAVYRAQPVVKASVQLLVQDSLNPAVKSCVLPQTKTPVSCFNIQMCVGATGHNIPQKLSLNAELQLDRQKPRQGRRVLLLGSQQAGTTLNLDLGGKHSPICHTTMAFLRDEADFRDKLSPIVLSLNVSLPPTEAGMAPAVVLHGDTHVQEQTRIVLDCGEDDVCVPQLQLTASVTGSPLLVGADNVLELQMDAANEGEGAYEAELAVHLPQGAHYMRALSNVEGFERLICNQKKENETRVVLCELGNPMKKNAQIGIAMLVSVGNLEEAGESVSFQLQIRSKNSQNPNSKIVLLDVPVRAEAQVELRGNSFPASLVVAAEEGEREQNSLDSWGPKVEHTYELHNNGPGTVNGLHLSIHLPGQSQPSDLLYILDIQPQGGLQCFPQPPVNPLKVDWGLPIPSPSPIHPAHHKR
T1 sequence (P08514 891-1039 limits assumed): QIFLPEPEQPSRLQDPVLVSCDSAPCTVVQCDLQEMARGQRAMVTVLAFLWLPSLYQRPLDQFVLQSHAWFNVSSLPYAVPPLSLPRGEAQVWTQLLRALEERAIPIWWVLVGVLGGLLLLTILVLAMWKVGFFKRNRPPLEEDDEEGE
T1 sequence (P05106 27-788): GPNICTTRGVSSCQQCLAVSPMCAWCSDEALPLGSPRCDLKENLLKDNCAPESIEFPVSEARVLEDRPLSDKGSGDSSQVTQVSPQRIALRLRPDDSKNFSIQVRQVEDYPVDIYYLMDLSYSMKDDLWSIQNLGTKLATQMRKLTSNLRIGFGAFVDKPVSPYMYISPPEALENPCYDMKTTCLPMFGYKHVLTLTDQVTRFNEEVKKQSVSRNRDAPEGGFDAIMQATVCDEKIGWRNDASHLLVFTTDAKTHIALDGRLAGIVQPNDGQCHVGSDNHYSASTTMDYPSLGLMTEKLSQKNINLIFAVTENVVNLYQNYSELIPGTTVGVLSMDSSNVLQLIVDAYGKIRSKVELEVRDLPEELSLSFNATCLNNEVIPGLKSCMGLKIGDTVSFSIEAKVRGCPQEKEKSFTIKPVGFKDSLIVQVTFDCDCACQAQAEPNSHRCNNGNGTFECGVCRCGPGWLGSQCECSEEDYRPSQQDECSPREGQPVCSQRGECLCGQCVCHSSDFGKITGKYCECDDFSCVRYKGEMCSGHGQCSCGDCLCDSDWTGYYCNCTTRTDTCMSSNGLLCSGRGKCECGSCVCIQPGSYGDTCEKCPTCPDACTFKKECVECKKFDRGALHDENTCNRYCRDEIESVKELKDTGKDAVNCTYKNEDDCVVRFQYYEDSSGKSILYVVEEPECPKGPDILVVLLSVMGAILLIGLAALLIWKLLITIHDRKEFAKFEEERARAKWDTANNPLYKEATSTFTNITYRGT
Description: (i) aggregating human, citrated, platelet-rich plasma by addition of adenosine diphosphate so as to generate a dose-response curve;
(ii) generating a dose-response curve for ADP stimulated platelet aggregation in the presence of increasing amounts of a test compound (generally in the range 10-^5 M to 10-^10 M); and
(iii) calculating a pA2 value indicating potency of platelet aggregation inhibition for the test compound, averaged over several concentrations, from the calculated 50% response value for ADP aggregation in the presence and absence of the test compound.

[2] = target: T2, purified human platelet fibrinogen receptor (GPIIb/IIIa) (Homo sapiens, UniProt P05106+P08514); experiment: Test (b): GPIIb/IIIa ELISA, inhibition of biotinylated fibrinogen binding; conditions: purified human platelet GPIIb/IIIa, ELISA; read-out: Test (b): pIC50 (-log(IC50)), 50% inhibition of biotinylated fibrinogen binding to GPIIb/IIIa (converted)
T2 construct: is isolated from human platelet lysates; from tissue
T2 sequence (P08514 32-887 limits assumed): as the sequence (P08514 32-887 limits assumed) above
T2 sequence (P08514 891-1039 limits assumed): as the sequence (P08514 891-1039 limits assumed) above
T2 sequence (P05106 27-788): as the sequence (P05106 27-788) above
Protocol: (i) Preparation of human platelet lysates.
Platelet rich plasma (PRP) is harvested by centrifugation (1000 rpm, 15 mins) of whole blood anticoaoulated with acid citrate dextrose (trisodium citrate 85 mM, citric acid 70 mM, d-glucose 110 mM) 1 part to 6 parts blood. Prostacyclin (PGI2, 1 μM) is added to the PRP before centrifugation (2400 pm, 15 mins) and the resulting pellet is resuspended in modified Tyrodes' solution (NaCl 130 mM, KCl 26 mM, NaHCO3 12 mM, NaH2 PO4 0.5 mM, MgCl2 1 mM, CaCl2 20 mM, Glucose 12 mM, HEPES 5 mM) containing bovine serum albumin 3.5 g/L, PGI2 1 μM and hirudin 0.5 U/ml. The platelet suspension is centrifuged (2400 rpm, 15 mins) and the resultant pellet resuspended in 500 μl of lysis buffer (octyl glucoside 50 mM, HEPES 10 mM, NaCl 150 mM, CaCl2 1 mM, MgCl2 1 mM, PMSF 1 mM, NEM 10 mM, leupeptin 0.1 mM), agitated at 4° C. for 15 minutes then centrifuged at 24000 rpm, 15 mins. The supernatant is stored at 4° C. and the pellet re-suspended in 500 μl of lysis buffer. The centrifugation process is repeated a further 3 tlimes, the pooled supernatants being stored at -70° C.
(ii) Receptor purification.
GP Ilb/Ila is isolated from human platelet lysates using a 2 ml peptide (KYGRGDS) coupled CNBr activated Sepharose affinity column. A 1.5 ml volume of platelet lysate is placed on the column and allowed to stand overnight at 4° C. Buffer (30 mls, octyl gluicoside 25 mM, HEPES 10 mM, NaCl 150 mM, CaCl2 1 mM, MgCl2 1 mM, PMSF 1 mM, NEM 10 mM, leupeptin 0.1 mM) is passed through the column and 2 ml fractions are collected throughout. GPIIb/IIIa is eluted with 12 mls of buffer containing HHLGGAKQAGDV (2 mg/ml, pH 7.5), the column is washed using 4 mls buffer and the remaining GPIIb/IIIa eluted using 12 mls buffer containing GRGDSPG (1 mg/ml pH 7.5). The column is finally washed using 20 mls of buffer and can be used for up to three such preparations. Fractions containing FGPIIb/IIIa are identified using gel electrophoresis and immunoblotting, pooled and stored at -70° C.
96 well microtitre plates are coated with 100 μl purified human platelet fibrinogen receptor (GPIIb/IIIa) diluted in coating buffer (Tris-HCl 20 mM, NaCl 150 mM, CaCl2 1 mM, pH 7.4) and left overnight at 4° C. The plates are washed using washing buffer (Tris-HCl 50 mM, NaCl 100 mM, CaCl2 2 mM, pH 7.4) and non-specific binding, blocked by the addition of 200 μl 2% BSA (2 hours, 30° C.). The plates are washed prior to incubation (2 hours, 30° C.) with 100 μl biotinylated fibrinogen ([…]) containing either vehicle or test compound. The plates are washed, incubated with streptavidin (5 μg/ml, 1 hour, ambient temperature), then washed again before the addition of 100 μl biotinylated horse radish peroxidase (0.1 μg/ml, 1 hour, ambient temperature). The plates are then washed and equal volumes of peroxidase substrate (3, 5, tetramethyl benzidine 0.4 g/l) and H2 O2 (0.02%) are mixed together immediately before addition of 150 μl to each well. Colour is allowed to develop for 10-15 mins before optical densities are read at 650 nm.
The concentration of compound required to cause 50% inhibition of biotinylated fibrinogen binding, is calculated and expressed as a pIC50 (-log(IC50)).

Row | Compound | Kb [1] [nM] | IC50 [2] [nM]
1 | COC(=O)c1cc2cc(C(=O)CN3CCN(c4ccncc4)CC3)ccc2o1 [Example 25, Methyl 5-[2-[4-(4-pyridyl)piperazin-1-yl]acetyl]benzofuran-2-carboxylate] | 7940 | 15800
2 | O=C(CN1CCN(c2ccncc2)CC1)c1ccc2oc(C(=O)O)cc2c1 [Example 26, 5-[2-[4-(4-Pyridyl)piperazin-1-yl]acetyl]benzofuran-2-carboxylic acid] | 1580 | 631
3 | CCOC(=O)C1CCN(C(=O)CN2CCN(c3ccncc3)CC2)CC1 [Example 27, Ethyl 1-[2-[4-(4-pyridyl)piperazin-1-yl]acetyl]piperidin-4-carboxylate] | 7940 | 2510
4 | O=C(O)C1CCN(C(=O)CN2CCN(c3ccncc3)CC2)CC1 [Example 28, 1-[2-[4-(4-Pyridyl)piperazin-1-yl]acetyl]piperidin-4-carboxylic acid] | 20000 | 2000
5 | O=C(O)CC1CCN(C(=O)CN2CCN(c3ccncc3)CC2)CC1 [Example 30, 2-[1-[2-[4-(4-Pyridyl)piperazin-1-yl]acetyl]piperidin-4-yl]acetic acid] | 5010 | 1260
6 | O=C(O)COC1CCN(C(=O)CN2CCN(c3ccncc3)CC2)CC1 [Example 32, 2-[1-[2-[4-(4-Pyridyl)piperazin-1-yl]acetyl]piperidin-4-yloxy]acetic acid] | 200 | 50.1
7 | CCCCS(=O)(=O)N[C@@H](Cc1ccc(OCC2CCN(c3ccncc3)CC2)cc1)C(=O)OC [Example 33, Methyl 2-S-(n-butylsulphonylamino)-3-[4-[1-(4-pyridyl)piperidin-4-yl]methoxyphenyl]propionate] | 398 | 126
8 | CCCCS(=O)(=O)N[C@@H](Cc1ccc(OCC2CCN(c3ccncc3)CC2)cc1)C(=O)O [Example 34, 2-S-(n-Butylsulphonylamino)-3-[4-[1-(4-pyridyl)piperidin-4-yl]methoxyphenyl]propionic acid] | 2 | 2
9 | CCCCS(=O)(=O)N[C@@H](Cc1ccc(OCCC2CCN(c3ccncc3)CC2)cc1)C(=O)OC [Example 35, Methyl 2-S-(n-butylsulphonylamino)-3-[4-[2-[1-(4-pyridyl)piperidin-4-yl]ethoxy]phenyl]propionate] | 398 | 63.1
10 | CCCCS(=O)(=O)N[C@@H](Cc1ccc(OCCC2CCN(c3ccncc3)CC2)cc1)C(=O)O [Example 36, 2-S-(n-Butylsulphonylamino)-3-[4-[2-[1-(4-pyridyl)piperidin-4-yl]ethoxy]phenyl]propionic acid] | 2 | 1
11 | CCCCS(=O)(=O)N[C@@H](Cc1ccc(OC2CCN(c3ccncc3)CC2)cc1)C(=O)OC [Example 37, Methyl 2-S-(n-butylsulphonylamino)-3-[4-[1-(4-pyridyl)piperidin-4-yl]oxyphenyl]propionate] | 2510 | 200
12 | CCCCS(=O)(=O)N[C@@H](Cc1ccc(OC2CCN(c3ccncc3)CC2)cc1)C(=O)O [Example 38, 2-S-(n-Butylsulphonylamino)-3-[4-[1-(4-pyridyl)piperidin-4-yl]oxyphenyl]propionic acid] | 31.6 | 2
13 | O=C(O)C[C@H](NC(=O)CN1CCN(c2ccncc2)CC1)C(=O)N[C@@H](Cc1ccccc1)C(=O)O [Example 39, N-[N-[2-[4-(4-Pyridyl)piperazin-1-yl]acetal]-L-aspartyl]-L-phenylalanine] | 25100 | 251
14 | O=C(O)C[C@H](NC(=O)CNC(=O)CN1CCN(c2ccncc2)CC1)C(=O)N[C@@H](Cc1ccccc1)C(=O)O [Example 40] | 79.4 | 20
15 | COC(=O)COc1ccc(C(=O)CN2CCN(c3cc(C)nc4ccccc34)CC2)cc1 [Example 41, Methyl 4-[2-[4-(2-methyl-4-quinolinyl)piperazin-1-yl]acetyl]phenoxyacetate] | > 100000 | > 100000
16 | Cc1cc(N2CCN(CC(=O)c3ccc(OCC(=O)O)cc3)CC2)c2ccccc2n1 [Example 42, 4-[2-[4-(2-Methyl-4-quinolinyl)piperazin-1-yl]acetyl]phenoxyacetic acid] | 50100 | 6310
17 | COC(=O)COc1ccc(C(=O)CN2CCN(c3ccnc4ccccc34)CC2)cc1 [Example 43, Methyl 4-[2-[4-(4-quinolinyl)piperazin-1-yl]acetyl]phenoxyacetate] | 39800 | 3160
18 | O=C(O)COc1ccc(C(=O)CN2CCN(c3ccnc4ccccc34)CC2)cc1 [Example 44, 4-[2-[4-(4-Quinolinyl)piperazin-1-yl]acetyl]phenoxyacetic acid trifluoroacetate salt] | 10000 | 100
19 | COC(=O)COc1ccc(C(=O)CN2CCN(c3ccnc4c3CCCC4)CC2)cc1 [Example 45, Methyl 4-[2-[4-(5,6,7,8-tetrahydro-4-quinolinyl)piperazin-1-yl]-acetyl]phenoxyacetate] | 3980 | 794
20 | O=C(O)COc1ccc(C(=O)CN2CCN(c3ccnc4c3CCCC4)CC2)cc1 [Example 46, 4-[2-[4-(5,6,7,8-Tetrahydro-4-quinolinyl)piperazin-1-yl]acetyl]phenoxyacetic acid] | 1000 | 25.1
21 | COC(=O)COc1ccc(C(=O)CN2CCN(c3ccncn3)CC2)cc1 [Example 47, Methyl 4-[2-[4-(4-pyrimidinyl)piperazin-1-yl]acetyl]phenoxyacetate] | 6310 | 39800
22 | O=C(O)COc1ccc(C(=O)CN2CCN(c3ccncn3)CC2)cc1 [Example 48, 4-[2-[4-(4-Pyrimidinyl)piperazin-1-yl]acetyl]phenoxyacetic acid] | 10000 | 251
23 | O=C(O)COc1ccc2c(=O)c(N3CCN(c4ccncc4)CC3)cn(Cc3ccccc3)c2c1 [Example 49, [1-Benzyl-3-[4-(4-pyridyl)piperazin-1-yl]-4-quinolon-7-yl]oxyacetic acid trifluoroacetate salt] | 79.4 | 6.31
24 | CCOC(=O)CCCOc1ccc(N2CCN(c3ccncc3)CC2)cc1 [Example 50, Ethyl 4-[4-[4-(4-pyridyl)piperazin-1-yl]phenoxy]butyrate] | 794 to 1000 | > 100000
25 | O=C(O)CCCOc1ccc(N2CCN(c3ccncc3)CC2)cc1 [Example 51, 4-[4-[4-(4-Pyridyl)piperazin-1-yl]phenoxy]butyric acid] | 12.6 to 100 | 3.98 to 25.1
26 | CCOC(=O)CCCCOc1ccc(N2CCN(c3ccncc3)CC2)cc1 [Example 52] | 10000 | > 100000
27 | O=C(O)CCCCOc1ccc(N2CCN(c3ccncc3)CC2)cc1 [Example 53, 5-[4-[4-(4-Pyridyl)piperazin-1-yl]phenoxy]pentanoic acid] | 1580 | 1260
28 | CCOC(=O)C=CCOc1ccc(N2CCN(c3ccncc3)CC2)cc1 [Example 54, Ethyl 4-[4-(4-pyridyl)piperazin-1-yl]phenoxycrotonate] | 15800 | > 100000
